Converted amounts (≈) assume the structure as drawn.
How the values were obtained:
infection = experiment: Protective effects against infection (Experiments 3 and 4); format: in vivo, ddY male mice; conditions: result in words
Procedure: (§1) The test microorganisms were subjected to standing culture in Trypto-Soya Agar "Nissui" (made by Nissui Seiyaku K.K., Japan) at 37° C. for 16 to 18 hours. The culture was then diluted with PBS (Dulbecco's phosphate buffered saline) and mixed with an equivalent amount of 10% (w/v) Mucin (BACTO MUCIN BACTERIOLOGICAL, made by Difco Co.) to prepare a microorganism solution. The thus prepared microorganism solution (0.5 ml each) was intraperitoneally inoculated to ddY male mice (5 weeks age, weighing 25-28 g, 5 mice in each group), to infect the animals. One hour after the infection, the compound (A) or (J) of the present invention or the known compound (X) suspended in 1% (w/v) aqueous gum arabic or the known compound (Y) dissolved in sterilized distilled water was orally adiministered to mice.
(§2) The mice were daily observed for one week, and from the survival number of mice after one week, the 50% effective dose (ED50) was calculated by Weil method.
(§3) The procedure of Experiment 3 was repeated except that ddY male mice weighing 24 to 28 g were employed.

[1] = test system: Morganella morganii IFO 3848; experiment: Antibacterial activity (MIC), Morganella morganii IFO 3848; format: cell-based; conditions: Morganella morganii, IFO3848, Morganella morganii IFO 3848, Gram -; read-out: Minimum inhibitory concentration (MIC)
Procedure: (§4) The compounds of the present invention (A, C, D, E, F, G, H, I, J, L, O and P) and the known compound (X) as reference were dissolved in 0.1 N aqueous sodium hydroxide to prepare a solution of 5000 μg/ml in concentration. The compounds of the present invention (B, K, M and N) and the known compound (Y) were dissolved in sterilized distilled water to prepare a solution of 5000 μg/ml in concentration. Each solution was diluted with sterilized distilled water to prepare a standard solution with a concentration of each test compound: 1000 μg/ml. The test was carried out by a method as appointed by Japan Society of Chemotherapy [cf. Chemotherapy, 29, 76-79 (1981)(TOKYO)].

[2] = test system: Pseudomonas aeruginosa NCTC 10490; experiment: Antibacterial activity (MIC), P. aeruginosa NCTC 10490; format: cell-based; conditions: Pseudomonas aeruginosa, NCTC10490, Pseudomonas aeruginosa NCTC 10490, Gram -; read-out: Minimum inhibitory concentration (MIC)
Procedure: as §4

[3] = test system: Pseudomonas aeruginosa E-2; experiment: Effect on treatment of general infectious disease, P. aeruginosa E-2 (Experiment 4); format: in vivo, ddY male mice infected with Pseudomonas aeruginosa; conditions: E2, 168 h, oral, 1 h after i.p. infection, 3.4×10^4 CFU/mouse, survival after one week
Procedure: as §1, §2
Pseudomonas aeruginosa E-2 (3.4×10^4 CFU/mouse)
as §3

[4] = test system: Enterobacter aerogenes ATCC 13048; experiment: Antibacterial activity (MIC), Enterobacter aerogenes ATCC 13048; format: cell-based; conditions: Klebsiella aerogenes, ATCC13048; Enterobacter aerogenes ATCC 13048, Gram -; read-out: Minimum inhibitory concentration (MIC)
Procedure: as §4

Proteus vulgaris OX-19 = experiment: Antibacterial activity (MIC), Proteus vulgaris OX-19; format: cell-based; conditions: OX19; Proteus vulgaris OX-19, Gram -; read-out: Minimum inhibitory concentration (MIC)
Procedure: as §4

[5] = test system: Staphylococcus aureus IID 803; experiment: Antibacterial activity (MIC), S. aureus IID 803; format: cell-based; conditions: IID803; Staphylococcus aureus IID 803, Gram +; read-out: Minimum inhibitory concentration (MIC)
Procedure: as §4

[6] = test system: Staphylococcus aureus IID 803; experiment: Effect on treatment of general infectious disease, S. aureus IID 803 (Experiment 4); format: in vivo, ddY male mice infected with Staphylococcus aureus; conditions: IID803, 168 h, oral, 1 h after i.p. infection, 2.1×10^7 CFU/mouse, survival after one week
Procedure: as §1, §2
Staphylococcus aureus IID 803 (2.1×10^7 CFU/mouse)
as §3

[7] = Acute toxicity (LD50) (Experiment 6); conditions: mouse, in vivo; oral, mice fasted 18 hours, observed for a week
Procedure: (§5) The compound (O) or (P) of the present invention was suspended in sterilized distilled water to prepare a suspension. The suspension was orally adminstered to ddY male mice (5 weeks age, weighing 20 to 25 g, 5 mice in each group), which had been fasted for 18 hours.

[8] = test system: Serratia marcescens IAM 1184; experiment: Antibacterial activity (MIC), Serratia marcescens IAM 1184; format: cell-based; conditions: Serratia marcescens, IAM1184, Serratia marcescens IAM 1184, Gram -; read-out: Minimum inhibitory concentration (MIC)
Procedure: as §4

[9] = test system: Acinetobacter calcoaceticus AC 54; experiment: Antibacterial activity (MIC), Acinetobacter calcoaceticus AC 54; format: cell-based; conditions: AC54; Acinetobacter calcoaceticus AC 54, Gram -; read-out: Minimum inhibitory concentration (MIC)
Procedure: as §4

[10] = test system: Micrococcus luteus ATCC 9341; experiment: Antibacterial activity (MIC), Micrococcus luteus ATCC 9341; format: cell-based; conditions: ATCC9341; Micrococcus luteus ATCC 9341, Gram +; read-out: Minimum inhibitory concentration (MIC)
Procedure: as §4

[11] = test system: Streptococcus faecalis IID 682; experiment: Antibacterial activity (MIC), Streptococcus faecalis IID 682; format: cell-based; conditions: Enterococcus faecalis, IID682, Streptococcus faecalis IID 682, Gram +; read-out: Minimum inhibitory concentration (MIC)
Procedure: as §4

[12] = test system: Bacillus subtilis ATCC 6633; experiment: Antibacterial activity (MIC), Bacillus subtilis ATCC 6633; format: cell-based; conditions: Bacillus subtilis, ATCC6633, Bacillus subtilis ATCC 6633, Gram +; read-out: Minimum inhibitory concentration (MIC)
Procedure: as §4

[13] = test system: Pseudomonas aeruginosa IFO 3445; experiment: Antibacterial activity (MIC), P. aeruginosa IFO 3445; format: cell-based; conditions: Pseudomonas aeruginosa, IFO3445, Pseudomonas aeruginosa IFO 3445, Gram -; read-out: Minimum inhibitory concentration (MIC)
Procedure: as §4

[14] = test system: Pseudomonas aeruginosa E-2; experiment: Antibacterial activity (MIC), P. aeruginosa E-2; format: cell-based; conditions: E2; Pseudomonas aeruginosa E-2, Gram -; read-out: Minimum inhibitory concentration (MIC)
Procedure: as §4

[15] = test system: Salmonella typhimurium IID 971; experiment: Antibacterial activity (MIC), Salmonella typhimurium IID 971; format: cell-based; conditions: Salmonella enterica; Salmonella typhimurium IID 971, Gram -; read-out: Minimum inhibitory concentration (MIC)
Procedure: as §4

[16] = Low toxicity (Experiments 5 and 6); format: in vivo, ddY male mice; conditions: result in words
Procedure: The compound (A) or (J) of the present invention was suspended in 1% (w/v) aqueous gum arabic to prepare a suspension in concentration of 100 mg/ml. The suspension was orally administered to ddY male mice (5 weeks age, weighing 20 to 25 g, 5 mice in each group), which had been fasted for 18 hours, at a rate of 2000 mg/kg body weight of the compound (A) or (J).
as §5

[17] = test system: Escherichia coli NIHJ JC-2; experiment: Antibacterial activity (MIC), E. coli NIHJ JC-2; format: cell-based; conditions: NIHJJC2; Escherichia coli NIHJ JC-2, Gram -; read-out: Minimum inhibitory concentration (MIC)
Procedure: as §4

[18] = test system: Staphylococcus epidermidis IAM-1296; experiment: Antibacterial activity (MIC), S. epidermidis IAM-1296; format: cell-based; conditions: Staphylococcus epidermidis, IAM1296, Staphylococcus epidermidis IAM-1296, Gram +; read-out: Minimum inhibitory concentration (MIC)
Procedure: as §4

[19] = test system: Proteus mirabilis IFO 3849; experiment: Antibacterial activity (MIC), Proteus mirabilis IFO 3849; format: cell-based; conditions: IFO3849; Proteus mirabilis IFO 3849, Gram -; read-out: Minimum inhibitory concentration (MIC)
Procedure: as §4

[20] = test system: Staphylococcus aureus FDA 209P JC-1; experiment: Antibacterial activity (MIC), S. aureus FDA 209P JC-1; format: cell-based; conditions: FDA209P; Staphylococcus aureus FDA 209P JC-1, Gram +; read-out: Minimum inhibitory concentration (MIC)
Procedure: as §4

Escherichia coli KC-14 = experiment: Antibacterial activity (MIC), E. coli KC-14; format: cell-based; conditions: KC14; Escherichia coli KC-14, Gram -; read-out: Minimum inhibitory concentration (MIC)
Procedure: as §4

Enterobacter cloacae 963 = experiment: Antibacterial activity (MIC), Enterobacter cloacae 963; format: cell-based; conditions: Enterobacter cloacae, 963, Enterobacter cloacae 963, Gram -; read-out: Minimum inhibitory concentration (MIC)
Procedure: as §4

[21] = test system: Klebsiella pneumoniae PCI-602; experiment: Antibacterial activity (MIC), Klebsiella pneumoniae PCI-602; format: cell-based; conditions: PCI602; Klebsiella pneumoniae PCI-602, Gram -; read-out: Minimum inhibitory concentration (MIC)
Procedure: as §4

[22] = test system: Citrobacter freundii NIHJ 10018-68; experiment: Antibacterial activity (MIC), Citrobacter freundii NIHJ 10018-68; format: cell-based; conditions: Citrobacter freundii, NIHJ10018, Citrobacter freundii NIHJ 10018-68, Gram -; read-out: Minimum inhibitory concentration (MIC)
Procedure: as §4

Shigella sonnei EW-33 = experiment: Antibacterial activity (MIC), Shigella sonnei EW-33; format: cell-based; conditions: Shigella sonnei, EW33, Shigella sonnei EW-33, Gram -; read-out: Minimum inhibitory concentration (MIC)
Procedure: as §4

Structure (SMILES): CC1CN(c2c(F)cc3c(=O)c(C(=O)O)c4scc5n4c3c2N(C)C5)CC(C)N1C (stereo not drawn) [Compound (P), 9,1-(Methylimino)methano-7-fluoro-8-(3,4,5-trimethyl-1-piperazinyl)-5-oxo-5H-thiazolo[3,2-a]quinoline-4-carboxylic acid]
- protective effects against infection (infection): excellent protective effects against infection
- MIC [1]: 0.39 µg/mL (≈ 0.906 µM)
- MIC [2]: 1.56 µg/mL (≈ 3.62 µM)
- ED50 [3]: 11.1 mg/kg
- MIC [4]: 0.2 µg/mL (≈ 0.465 µM)
- MIC (Proteus vulgaris OX-19): 0.1 µg/mL (≈ 0.232 µM)
- MIC [5]: 0.025 µg/mL (≈ 0.0581 µM)
- ED50 [6]: 1.9 mg/kg
- LD50 at 168 h [7]: 1070 mg/kg
- MIC [8]: 1.56 µg/mL (≈ 3.62 µM)
- MIC [9]: 0.025 µg/mL (≈ 0.0581 µM)
- MIC [10]: 0.39 µg/mL (≈ 0.906 µM)
- MIC [11]: 0.2 µg/mL (≈ 0.465 µM)
- MIC [12]: 0.006 µg/mL (≈ 0.0139 µM)
- MIC [13]: 3.13 µg/mL (≈ 7.27 µM)
- MIC [14]: 1.56 µg/mL (≈ 3.62 µM)
- MIC [15]: 0.39 µg/mL (≈ 0.906 µM)
- toxicity [16]: low toxicity
- MIC [17]: 0.1 µg/mL (≈ 0.232 µM)
- MIC [18]: 0.1 µg/mL (≈ 0.232 µM)
- MIC [19]: 0.78 µg/mL (≈ 1.81 µM)
- MIC [20]: 0.025 µg/mL (≈ 0.0581 µM)
- MIC (Escherichia coli KC-14): 0.1 µg/mL (≈ 0.232 µM)
- MIC (Enterobacter cloacae 963): 0.2 µg/mL (≈ 0.465 µM)
- MIC [21]: 0.006 µg/mL (≈ 0.0139 µM)
- MIC [22]: 1.56 µg/mL (≈ 3.62 µM)
- MIC (Shigella sonnei EW-33): 0.05 µg/mL (≈ 0.116 µM)

Source: US4971967A, “Quinolinecarboxylic acid derivatives, antibacterial compositions and use” (Kanebo Ltd, priority 1989, dated 1990)
